The subject of the assay is serum ferritin. Kind of assay: Serum ferritin in chronic hepatitis C patients after oral administration for 24 weeks. Conditions: patients with chronic hepatitis C, 50 mg/day or 200 mg/day in two divided doses, CLIA, percentage change vs level before administration. Format: in vivo, human (patients suffering from chronic hepatitis C). On the procedure: To patients suffering from chronic hepatitis C, 22β-methoxyolean-12-ene-3β,24(4β)-diol was orally administered for 24 weeks, at a daily dose of 50 mg/day or 200 mg/day. The administration of 22β-methoxyolean-12-ene-3β,24(4β)-diol in each administration group was carried out by orally administering half of each daily dose twice a day after eating breakfast and dinner. For example, in the 50 mg/day administration group, each day 25 mg of the drug was orally administered after breakfast and 25 mg of the drug was orally administered after dinner. Immediately after the beginning of the administration, and after 2, 4, 8, 12, 16, 20, and 24 weeks from the beginning of the administration, serum samples were collected to determine serum ferritin contained in the samples. […] Serum ferritin was determined by a chemiluminescence immunoassay (CLIA) with reference to a method described in a protocol attached to Chemilumi ACS-Ferritin II (Bayer Medical). Each serum ferritin level contained in each serum sample collected was indicated as percentage, with the serum ferritin level before the administration of 22β-methoxyolean-12-ene-3β,24(4β)-diol regarded as […], and an average and a median of all patients were calculated.

Serum ferritin level data for one molecule are collected here from patent US20100093871A1, “AGENT FOR PREVENTION OR TREATMENT OF IRON OVERLOAD DISORDERS” (MEIJI SEIKA KAISHA, LTD., priority 2007, published 2010).

For the molecule `CO[C@@H]1CC(C)(C)CC2C3=CCC4[C@@]5(C)CC[C@H](O)[C@](C)(CO)C5CC[C@@]4(C)[C@]3(C)CC[C@]21C` (stereo partly drawn) [22β-methoxyolean-12-ene-3β,24(4β)-diol], the serum ferritin level result is reported as “serum ferritin was lowered”.
